Active and inactive are the calls of the source. The rule behind the calls is not given here.

What all share (type): functional, cell-based
Test [1] concerns A549. Nature of the test: Growth inhibition in A549 cells after 48 hrs by MTT assay. Particulars: Homo sapiens, A549, 48 h. In general terms: Tetrazolium dyes change colour on reduction, which living cells bring about.
The subject of test [2] is A549. In words: Growth inhibition in A549 cells at 12.5 uM after 48 hrs by MTT assay. Particulars: Homo sapiens.
Test [3] deals with A549. In words: Growth inhibition in A549 cells at 50 uM by MTT assay. Particulars: Homo sapiens.
Test [4] has as its system A549. Nature of the test: Growth inhibition in A549 cells at 25 uM after 24 hrs by MTT assay. Particulars: Homo sapiens.
Test [5] has as its system A549. Nature of the test: Growth inhibition in A549 cells at 100 uM by MTT assay. Particulars: Homo sapiens.
Test [6] has as its system A549. In words: Growth inhibition in A549 cells at 25 uM after 48 hrs by MTT assay. Particulars: Homo sapiens.
Test [7] relates to A549. Nature of the test: Effect on cell morphology in A549 cells assessed as induction of differentiation at 50 uM. Particulars: Homo sapiens.
The test system of test [8] is A549. Nature of the test: Effect on cell morphology in A549 cells assessed as induction of cellular vacuolation. Particulars: Homo sapiens.

As usually defined, the IC50 is the concentration needed to halve the response being measured. A low value points to higher potency. In test [1], `CCOC(=O)c1cc(-c2ccc(Cl)cc2)nn1CC(O)COc1ccccc1[N+](=O)[O-]` (stereo unspecified) displayed an IC50 of 26 µM. Also, the result in test [2], in test [3], in test [4] and in test [5] was Active. Also, in test [6], the result was inactive.
Take `CCOC(=O)c1cc(-c2ccc(Cl)cc2)nn1CC(O)COc1ccccc1` (stereo unspecified): in test [1], the IC50 turned out to be 27 µM. For the same compound, the result in test [7], in test [2], in test [3], in test [4] and in test [5] was Active. Further, the outcome in test [6] was inactive.
For `CCOC(=O)c1cc(-c2ccc(Cl)cc2)nn1CC(O)COc1ccc([N+](=O)[O-])cc1` (stereo unspecified), the IC50 in test [1] was found to be 45 µM. The outcome in test [2], in test [3], in test [4] and in test [5] was Active. In addition, the outcome in test [6] was inactive.
For the compound `CCOC(=O)c1cc(-c2ccc(OC)cc2)nn1CC(O)COc1ccccc1` (stereo unspecified), in test [1], 33 µM corresponded to half-maximal inhibition (IC50). For the same compound, the outcome in test [3], in test [5] and in test [6] was Active.
For the compound `CCOC(=O)c1cc(-c2ccccc2)nn1CC(O)COc1ccccc1` (stereo unspecified), in test [1], the IC50 turned out to be 65 µM. For the same compound, the outcome in test [3], in test [5] and in test [6] was Active.
Regarding `CCOC(=O)c1cc(-c2ccccc2)nn1CC(O)COc1ccccc1[N+](=O)[O-]` (stereo unspecified), the IC50 in test [1] worked out at 30 µM. For the same compound, the outcome in test [3], in test [4] and in test [5] was Active. The result in test [6] was inactive.
In test [1], `CCOC(=O)c1cc(-c2ccc(Cl)cc2)nn1CC(O)COc1ccc(Cl)cc1` (stereo unspecified) yielded an IC50 of 33 µM. In addition, the outcome in test [8], in test [3], in test [5] and in test [6] was Active.
In turn, `CCOC(=O)c1cc(-c2ccc(OC)cc2)nn1CC(O)COc1ccc(Cl)cc1` (stereo unspecified) displayed an IC50 in test [1] of 38 µM. Moreover, the result in test [3] and in test [5] was Active.
The compound `CCOC(=O)c1cc(-c2ccc(OC)cc2)nn1CC(O)COc1ccccc1OC` (stereo unspecified) had an IC50 in test [1] of 68 µM. Also, the result in test [3] and in test [5] was Active.
In turn, `CCOC(=O)c1cc(-c2ccccc2)nn1CC(O)COc1ccc([N+](=O)[O-])cc1` (stereo unspecified) registered an IC50 in test [1] of 48 µM. In addition, the result in test [3], in test [4] and in test [5] was Active. For the same compound, the outcome in test [6] was inactive.
In test [1], `CCOC(=O)c1cc(-c2ccc(OC)cc2)nn1CC(O)COc1ccc([N+](=O)[O-])cc1` (stereo unspecified) had an IC50 of 44 µM. The outcome in test [3] and in test [5] was Active.
Regarding `CCOC(=O)c1cc(-c2ccccc2)nn1CC(O)COc1ccc(Cl)cc1` (stereo unspecified), in test [1], half-maximal inhibition (IC50) was put at 59 µM. Further, the result in test [3] and in test [5] was Active.
As to `CCOC(=O)c1cc(-c2ccc(Cl)cc2)nn1CC(O)COc1ccccc1OC` (stereo unspecified), the half-inhibitory concentration (IC50) in test [1] was 32 µM. Also, the result in test [3], in test [5] and in test [6] was Active.
Turning to `CCOC(=O)c1cc(-c2ccc(OC)cc2)nn1CC(O)COc1ccccc1[N+](=O)[O-]` (stereo unspecified), the IC50 in test [1] amounted to 45 µM. Moreover, the outcome in test [3] and in test [5] was Active.
In test [1], `CCOC(=O)c1cc(-c2ccccc2)nn1CC(O)COc1ccccc1OC` (stereo unspecified) yielded an IC50 of 58 µM. For the same compound, the outcome in test [3], in test [4] and in test [5] was Active. Also, in test [6], the result was inactive.

These data come from ChEMBL document CHEMBL1146159, “Design, synthesis, and preliminary biological evaluation of novel ethyl 1-(2'-hydroxy-3'-aroxypropyl)-3-aryl-1H-pyrazole-5-carboxylate” (Bioorg Med Chem Lett, 2006).
